According to the METLIN SMRT retention time set (Domingo-Almenara et al. 2019):

Assay: gradient 5% acetonitrile 3 min, to 50% in 2 min, to 85% in 15 min, held 3 min, 100 µL/min
Details: column: Zorbax Extend-C18 2.1 x 50 mm; eluents: water / acetonitrile, 0.1% formic acid
Procedure, shortened: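 Values are retention times taken from adduct peaks that software picked and an analyst inspected. The pure standards were run as mixtures of ~100 molecules on HPLC linked to a quadrupole time-of-flight mass spectrometer, in positive and negative ionization mode. A Zorbax Extend-C18 column (2.1 × 50 mm, 1.8 μm) was used at 100 μL/min with water and acetonitrile, each including 0.1% formic acid.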

| SMILES | RP-LC retention time [s] |
| --- | --- |
| Cc1ccc(NC(=O)Cn2cnc3nc(N4CCCC(C(=O)NC5CC5)C4)sc3c2=O)cc1C (stereo unspecified) | 693 |
| Cc1noc([C@@H]2CN(C(=O)c3cn[nH]c3)C[C@H]2C(N)=O)n1 | 536 |
| CCCNc1cc(N2CCC(CCC(=O)NCc3cc(F)cc(F)c3)CC2)ncn1 | 704 |
| O=C(O)c1ccc(Nc2ncnc3c2cnn3Cc2ccccc2)cc1 | 772 |
| CCOc1ccc(OCC)c(NC(=O)C2=C(C)C(=O)OC23CCCCCC3)c1 | 1250 |
| Cc1nn(-c2ccccc2)c2ccn(CC(=O)N3CCN(c4cccc(Cl)c4)CC3)c(=O)c12 | 927 |
| CCc1cccc(NC(=O)Cn2nc(N3CCC(C)CC3)c3ccccc3c2=O)c1 | 1220 |
| COC(=O)C1=CN(c2ccccc2C)c2ccccc2S1(=O)=O | 848 |
| O=C(NCCCN1CCCC1=O)C1=C2CCCN2c2ccc(F)cc2S1(=O)=O | 650 |
| Cc1ccc(NS(=O)(=O)c2cc3c(s2)CCN(C(=O)C2CCC2)C3)cc1 | 864 |
| CC(Cc1ccco1)NC(=O)CCCn1c2ccccc2c2cnn(C)c(=O)c21 (stereo unspecified) | 775 |
| O=C(c1ccc(Cl)cc1)N(CC1CCOC1)C1CC1 (stereo unspecified) | 791 |
| CS(=O)(=O)N1CCC(C(=O)Nc2ccc(Cl)c(C(F)(F)F)c2)Oc2ccccc21 (stereo unspecified) | 1020 |
| Cc1cccc(NC(=O)CCCCC(=O)O)n1 | 528 |
| CCOC(=O)c1c(C)[nH]c(C(=O)N2CCCC(C(=O)NCCC(C)C)C2)c1C (stereo unspecified) | 798 |
| Cc1ccc(CN2CCN(CC(=O)N3CCN(c4ccccn4)CC3)C(=O)C2=O)cc1 | 586 |
| Cc1ccc(N2C(=O)CCS2(=O)=O)cc1S(=O)(=O)NCCc1c[nH]c2ccccc12 | 799 |
| O=C(CN1CCN(C(=O)Nc2ccc(Br)cc2)CC1=O)NCCC1=CCCCC1 | 834 |
| CCOc1ccccc1NC(=O)N1C[C@@H]2CN(S(=O)(=O)c3ccc(C)cc3)C[C@H](C1)O2 | 915 |
| CC1(C(=O)N2CCN(Cc3ccc4c(c3)OCO4)CC2)CCCCC(=O)N1 (stereo unspecified) | 576 |
| O=C(Nc1ccc(C(F)(F)F)cc1)NC1CCN(c2cc(N3CCOCC3)cnn2)C1 (stereo unspecified) | 685 |
| Cn1cc(S(=O)(=O)N2CCC(C(=O)N3CCc4ccccc43)CC2)cc1C(=O)N1CCCC1 | 805 |
| CCOC(=O)c1c(C)[nH]c(C)c1S(=O)(=O)N1CCC(C(=O)Nc2ccc3c(c2)OCO3)CC1 | 774 |
| Cc1ccc(Nc2cc(C)nc(N3CCN(C(=O)Nc4ccccc4)CC3)n2)cc1 | 738 |
| CC(CCc1ccccc1)NC(=O)CN1CCCN(Cc2cccc(Cl)c2)S1(=O)=O (stereo unspecified) | 1120 |
| COCC(=O)Nc1ccc2c(c1)CCC(=O)N2C | 613 |
| O=C(CN1CCCC1=O)NCc1ccc(F)c(Cl)c1 | 667 |
| CCc1cccc(NC(=O)C2CCCN(S(=O)(=O)c3c[nH]c(C(=O)N4CCCCCC4)c3)C2)c1 (stereo unspecified) | 911 |
| Cn1nc(C(=O)N2CCCC(C(=O)N3CCCC3)C2)c2c1CCN(C(=O)c1ccccc1Cl)C2 (stereo unspecified) | 662 |

More lines, now with the values ahead:

| RP-LC retention time [s] | SMILES |
| --- | --- |
| 1060 | COc1cc(Cl)ccc1-c1nc(-c2cccc(-c3ccn[nH]3)c2)no1 |
| 595 | CCOC(=O)C1=C(CN2CCN(C)CC2)NC(=O)NC1c1cccc(OC)c1OC (stereo unspecified) |
| 967 | COC(=O)c1ccc2c(=O)n(-c3ccc(F)c(Cl)c3)c(N3CCOCC3)nc2c1 |
| 1150 | CCOC(=O)c1noc2ncnc(N3CCN(c4cccc(Cl)c4)CC3)c12 |
| 759 | C=CCNC(=O)c1cnn(-c2ccc(-c3nc(C(C)(C)C)no3)cn2)c1C |
| 620 | CC(C)CC(=O)Nc1ccc2c(c1)nc(CN1CCN(C(=O)c3ccco3)CC1)n2C |
| 1010 | Cc1nc2cc(-c3noc(-c4ccc(C#N)cc4)n3)ccc2o1 |
| 963 | CCn1nnc2ccc(-c3noc(-c4ccc(OC)c(OC)c4)n3)cc21 |
| 652 | CCOc1ccc(NC(=O)Cn2c(N3CCOCC3)nc3cc(C)n(C)c3c2=O)cc1 |
| 859 | COc1cccc(-n2c(N3CCCC(C(=O)NCc4ccccc4)C3)nc3ccsc3c2=O)c1 (stereo unspecified) |
| 716 | O=C(CCNc1c(-c2ccc(F)cc2)nc2cnccn12)NCc1ccc2c(c1)OCO2 |
| 644 | CN(Cc1nc2cc(C(=O)N3CCCC3)ccc2n1C)C(=O)Nc1ccccc1Br |
| 962 | CCN1C(=O)COc2ccc(-c3nc(NC(=O)CC(C)C)sc3C)cc21 |
| 788 | COc1cc(CNC(=O)c2nc(CCS(=O)(=O)c3ccc(F)cc3)no2)cc(OC)c1OC |
| 1050 | CCOc1cccc(-c2noc(Cn3c(=O)n(-c4ccccc4F)c(=O)c4sccc43)n2)c1 |
| 925 | Cc1ccc(CNC(=O)Cn2c3ccccc3c3cnn(C)c(=O)c32)o1 |
| 975 | COC(=O)c1ccc2c(=O)n(-c3ccc(C)c(F)c3)c(N3CCOCC3)nc2c1 |
| 617 | O=C(NCc1cccs1)c1ccc2ncnc(N3CCCC3)c2c1 |
| 748 | Cc1ccc(-n2nc(OC(C)C(=O)NCc3ccco3)ccc2=O)cc1C (stereo unspecified) |

| RP-LC retention time [s] | SMILES |
| --- | --- |
| 1050 | Cc1ccc(-c2cc(C(=O)NC3CCC(C)CC3)c(C)[nH]2)cc1 (stereo unspecified) |
| 775 | CC(C)NC(=O)N1CCC(c2noc(-c3ccccc3)n2)C1 (stereo unspecified) |
| 1080 | Cc1ccc(Cl)cc1NC(=O)Cn1nc2c(Oc3ccc(C(C)C)cc3)nccn2c1=O |
| 836 | Cc1ccc(Sc2cncc3sc(C(N)=O)cc23)cc1 |
| 891 | Cc1cc(C(F)F)n2nc(C(=O)Nc3ccc(Br)cc3)nc2n1 |
| 693 | Cc1cc(C(=O)NCCN2CCOCC2)nc2cc(-c3ccccn3)nn12 |
| 1140 | CCn1nccc1-c1cccc(-c2noc(-c3ccc(C#N)cc3)n2)c1 |
| 880 | Cc1noc(C)c1-c1ccc(S(=O)(=O)Nc2ccc3c(c2)OCCO3)cc1 |
| 1210 | Cc1ccc(-c2csc(NC(=O)Cc3csc(-c4ccccc4)n3)n2)cc1 |
| 914 | CCc1noc(NC(C)=O)c1-c1ccc(C)c(S(=O)(=O)NCc2ccccc2Cl)c1 |
| 811 | Cn1cc(-c2ccc(F)cc2)cc1C(=O)N1CCOCC1 |
| 732 | COc1ccc(CNC(=O)N2C[C@H](c3nc(-c4ccncc4)no3)[C@@H](C)C2)cc1 |
| 575 | CCN(CC)c1ccc(-c2noc(CN3CCN(c4ccccn4)CC3)n2)cn1 |
| 650 | CNc1nc(Nc2cccc(OC)c2)nc2ccccc12 |
| 751 | COc1ncc(C(=O)NCc2ccc(Cl)cc2)cn1 |
| 1070 | O=C(Nc1ccccc1Br)N1CCCC1c1nc(-c2ccc(F)cc2F)no1 (stereo unspecified) |
| 676 | COc1ccc(NC(=O)N2CCC(n3c(CC(C)C)nc4cccnc43)CC2)c(OC)c1 |
| 723 | O=C(O)c1cn(-c2cccc(Br)c2)nn1 |
